Measurements: patent US9334286B2, “Pharmacologically active compounds” (Cancer Research Technology Limited, priority 2012, dated 2016)
Read-outs that look alike come from different tables or passages of the source.

Target: full length MPS1 (Homo sapiens (Human), UniProt P33981)
Experiment: Measurement of inhibition of MPS1 kinase (Caliper EZ reader, fluorescent labelled peptide H236)
Format: biochemical
Protocol: The reaction was carried out for 60 min at room temperature and stopped by the addition of buffer (10 μl) containing 20 mM EDTA, 0.05% (v/v) Brij-35, in 0.1M HEPES-buffered saline (Free acid, Sigma, UK). The plate was read on a Caliper EZ reader II (Caliper Life Sciences).
The reader provides a Software package (‘Reviewer’) which converts the peak heights into % conversion by measuring both product and substrate peak and also allows selection of control well which represent 0% and 100% inhibition respectively. The % inhibition of the compounds is calculated relative to the means of selected control wells. IC50s are determined by testing the compounds at a range of concentrations from 0.25 nM-100 μM. The % inhibitions at each concentration are then fitted to a 4 parameter logistic fit: y=(a+((b−a)/(1+((c/x^d)))) where a=asym min, b=asym max, c=IC50 and d=hill coefficient

[1] = full length MPS1 12.5 nM or 3 nM, peptide H236 5 μM, ATP 10 μM, 60 min at room temperature

Chain of full length MPS1 (P33981 whole entry): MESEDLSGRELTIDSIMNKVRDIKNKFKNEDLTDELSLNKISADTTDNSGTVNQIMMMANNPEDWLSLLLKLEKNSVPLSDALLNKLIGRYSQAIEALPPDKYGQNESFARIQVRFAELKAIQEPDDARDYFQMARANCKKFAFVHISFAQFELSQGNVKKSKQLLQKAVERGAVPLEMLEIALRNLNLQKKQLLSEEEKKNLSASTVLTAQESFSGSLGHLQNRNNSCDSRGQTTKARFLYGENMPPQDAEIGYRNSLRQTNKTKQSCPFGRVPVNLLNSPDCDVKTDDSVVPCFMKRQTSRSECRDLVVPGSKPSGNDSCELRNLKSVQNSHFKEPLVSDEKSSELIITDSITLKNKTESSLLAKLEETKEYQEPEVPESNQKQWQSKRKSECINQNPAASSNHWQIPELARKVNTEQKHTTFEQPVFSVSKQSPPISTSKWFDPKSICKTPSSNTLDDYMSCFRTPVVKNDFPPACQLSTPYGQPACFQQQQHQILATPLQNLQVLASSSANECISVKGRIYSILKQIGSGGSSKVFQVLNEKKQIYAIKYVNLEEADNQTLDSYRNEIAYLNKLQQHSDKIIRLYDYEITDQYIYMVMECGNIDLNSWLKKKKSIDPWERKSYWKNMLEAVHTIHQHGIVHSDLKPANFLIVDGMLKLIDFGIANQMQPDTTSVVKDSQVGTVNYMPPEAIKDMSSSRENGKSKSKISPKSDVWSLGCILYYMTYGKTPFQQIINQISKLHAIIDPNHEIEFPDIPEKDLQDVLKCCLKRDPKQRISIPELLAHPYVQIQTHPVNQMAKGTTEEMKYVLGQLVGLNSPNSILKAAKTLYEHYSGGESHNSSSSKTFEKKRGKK

Structure (SMILES) | IC50 [1] [nM] | IC50 [nM]
COc1cc(-c2cnc(C)n2C)ccc1Nc1cc2cc(-c3cncnc3)ccc2cn1 [Example 17, N-(4-(1,2-dimethyl-1H-imidazol-5-yl)-2-methoxyphenyl)-6-(pyrimidin-5-yl)isoquinolin-3-amine] | 14 | –
COc1cc(-c2cnc(C)n2C)ccc1Nc1cc2cc(C3CC3)ccc2cn1 [Example 18, 6-Cyclopropyl-N-(4-(1,2-dimethyl-1H-imidazol-5-yl)-2-methoxyphenyl)isoquinolin-3-amine] | 144 | –
COc1cc(-c2cnc(C)n2C)ccc1Nc1cc2cc(-c3cn(C)nc3C)ccc2cn1 [Example 19, N-(4-(1,2-dimethyl-1H-imidazol-5-yl)-2-methoxyphenyl)-6-(1,3-dimethyl-1H-pyrazol-4-yl)isoquinolin-3-amine] | 30 | –
Cc1ncc(-c2ccc(Nc3cc4cc(-c5cnn(C)c5)ccc4cn3)c(Cl)c2)n1C [Example 22, N-(2-chloro-4-(1,2-dimethyl-1H-imidazol-5-yl)phenyl)-6-(1-methyl-1H-pyrazol-4-yl)isoquinolin-3-amine] | 4 | –
COCCn1cc(-c2ccc3cnc(Nc4ccc(-c5cnc(CO)n5C)cc4OC)cc3c2)cn1 [Example 25, (5-(3-Methoxy-4-((6-(1-(2-methoxyethyl)-1H-pyrazol-4-yl)isoquinolin-3-yl)amino)phenyl)-1-methyl-1H-imidazol-2-yl)methanol] | – | 28
COc1cc(-c2cnc(C)n2C)ccc1Nc1cc2cc(-c3cncc(C)c3)ccc2cn1 [Example 26, N-(4-(1,2-dimethyl-1H-imidazol-5-yl)-2-methoxyphenyl)-6-(5-methylpyridin-3-yl)isoquinolin-3-amine] | 10 | –
COc1cc(-c2cnc(C)n2C)ccc1Nc1cc2cc(-c3cnnn3C)ccc2cn1 [Example 27, N-(4-(1,2-dimethyl-1H-imidazol-5-yl)-2-methoxyphenyl)-6-(1-methyl-1H-1,2,3-triazol-5-yl)isoquinolin-3-amine] | 4 | –
COc1cc(-c2cnc(C)n2C)ccc1Nc1cc2cc(-c3cnn(CC4CCC4)c3)ccc2cn1 [Example 28, 6-(1-(Cyclobutylmethyl)-1H-pyrazol-4-yl)-N-(4-(1,2-dimethyl-1H-imidazol-5-yl)-2-methoxyphenyl)isoquinolin-3-amine] | 3 | –

Next, values leading:

IC50 [1] [nM] | IC50 [nM] | Structure (SMILES)
2 | – | COc1cc(-c2cnc(C)n2C)ccc1Nc1cc2cc(-c3cnn(C)c3C)ccc2cn1 [Example 20, N-(4-(1,2-dimethyl-1H-imidazol-5-yl)-2-methoxyphenyl)-6-(1,5-dimethyl-1H-pyrazol-4-yl)isoquinolin-3-amine]
3 | – | COc1cc(-c2cncn2C)ccc1Nc1cc2cc(-c3cnn(C)c3)ccc2cn1 [Example 21, N-(2-methoxy-4-(1-methyl-1H-imidazol-5-yl)phenyl)-6-(1-methyl-1H-pyrazol-4-yl)isoquinolin-3-amine]
2 | – | COc1cc(-c2cnc(C)n2C)ccc1Nc1cc2cc(-c3cnn(C)c3)ccc2cn1 [Example 23, N-(4-(1,2-dimethyl-1H-imidazol-5-yl)-2-methoxyphenyl)-6-(1-methyl-1H-pyrazol-4-yl)isoquinolin-3-amine]
2 | – | COc1cc(C(=O)N2CC(OC)C2)ccc1Nc1cc2cc(-c3cnn(C)c3)ccc2cn1 [Example 24, (3-Methoxy-4-((6-(1-methyl-1H-pyrazol-4-yl)isoquinolin-3-yl)amino)phenyl)(3-methoxyazetidin-1-yl)methanone]
2 | – | COc1cc(-c2cnc(C)n2C)ccc1Nc1cc2cc(-c3cnn(CC(C)(C)O)c3)ccc2cn1 [Example 29, 1-(4-(3-((4-(1,2-Dimethyl-1H-imidazol-5-yl)-2-methoxyphenyl)amino)isoquinolin-6-yl)-1H-pyrazol-1-yl)-2-methylpropan-2-ol]
2 | – | COc1cc(-c2cnc(C)n2C)ccc1Nc1cc2cc(-c3cnn(CC4(C)COC4)c3)ccc2cn1 [Example 30, N-(4-(1,2-Dimethyl-1H-imidazol-5-yl)-2-methoxyphenyl)-6-(1-((3-methyloxetan-3-yl)methyl)-1H-pyrazol-4-yl)isoquinolin-3-amine]
